Assay results reported in the supplement of paper PMC10307832.

Key:
Assay in all cases: relative viability (nuclei count vs DMSO), 5 days (fraction); higher = more cells survive
RO-3306 + Luminespib = compound: C1=CC2=C(C=CC(=C2)C=C3C(=O)NC(=NCC4=CC=CS4)S3)N=C1 [RO-3306] + CCNC(=O)c1noc(-c2cc(C(C)C)c(O)cc2O)c1-c1ccc(CN2CCOCC2)cc1 [Luminespib] (partner 0.01 µM)
Method in brief: (§1)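 Relative viability divides the nuclei count in treated wells by that in vehicle wells. Lung cancer cell lines were seeded in 1536-well plates, dosed by pin tool the next day, and fixed and stained after 5 days in one step with final 0.05% Triton X-100, 1% formaldehyde and 1 ug/ml Hoechst. Dosing was a single drug or a fixed anchor-drug dose plus five library-drug doses (not always all listed) in √10 steps, and values are medians of duplicate plates imaged at 4×.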

RO-3306 + Olaparib = compound: C1=CC2=C(C=CC(=C2)C=C3C(=O)NC(=NCC4=CC=CS4)S3)N=C1 [RO-3306] + O=C(c1cc(Cc2n[nH]c(=O)c3ccccc23)ccc1F)N1CCN(C(=O)C2CC2)CC1 [Olaparib] (partner 8 µM)
Method in brief: as §1

[1] = compound: O=S(=O)(c1ccccc1)N(CC(F)(F)F)c1ccc(C(O)(C(F)(F)F)C(F)(F)F)cc1 + CC(=O)Nc1cccc(-n2c(=O)n(C3CC3)c(=O)c3c(Nc4ccc(I)cc4F)n(C)c(=O)c(C)c32)c1 [Trametinib] (partner 0.02 µM)
Method in brief: as §1

[2] = compound: O=S(=O)(c1ccccc1)N(CC(F)(F)F)c1ccc(C(O)(C(F)(F)F)C(F)(F)F)cc1 + Cc1nc(Nc2ncc(C(=O)Nc3c(C)cccc3Cl)s2)cc(N2CCN(CCO)CC2)n1 [Dasatinib] (partner 0.075 µM)
Method in brief: as §1

| Cell Line | relative viability (RO-3306 + Luminespib; first compound 0.01 µM) | relative viability (RO-3306 + Luminespib; first compound 0.03162 µM) | relative viability (RO-3306 + Luminespib; first compound 0.1 µM) | relative viability (RO-3306 + Luminespib; first compound 0.3162 µM) | relative viability (RO-3306 + Luminespib; first compound 1 µM) | relative viability (RO-3306 + Olaparib; first compound 0.01 µM) | relative viability (RO-3306 + Olaparib; first compound 0.03162 µM) | relative viability (RO-3306 + Olaparib; first compound 0.1 µM) | relative viability (RO-3306 + Olaparib; first compound 0.3162 µM) | relative viability (RO-3306 + Olaparib; first compound 1 µM) | relative viability ([1]; first compound 0.8 µM) | relative viability ([1]; first compound 2.53 µM) | relative viability ([1]; first compound 8 µM) | relative viability ([2]; first compound 0.8 µM) | relative viability ([2]; first compound 2.53 µM) | relative viability ([2]; first compound 8 µM) |
| --- | --- | --- | --- | --- | --- | --- | --- | --- | --- | --- | --- | --- | --- | --- | --- | --- |
| NCI-H596 | 1.06 | 0.853 | 1.13 | 0.84 | 0.974 | 0.675 | 0.669 | 0.616 | 0.672 | 0.569 | 0.746 | 0.794 | 0.724 | 0.594 | 0.566 | 0.52 |
| BEN | 0.331 | 0.337 | 0.33 | 0.4 | 0.447 | 1.09 | 0.893 | 1.01 | 1.16 | 1.02 | 1.05 | 0.888 | 1.02 | 0.252 | 0.275 | 0.333 |
| SW 900 | 0.148 | 0.181 | 0.172 | 0.175 | 0.183 | 0.96 | 0.809 | 0.72 | 0.789 | 0.807 | 0.787 | 0.828 | 0.607 | 0.625 | 0.563 | 0.478 |
| HCC-15 | 0.488 | 0.42 | 0.355 | 0.315 | 0.418 | 0.666 | 0.628 | 0.756 | 0.701 | 0.693 | 0.37 | 0.302 | 0.291 | 0.616 | 0.496 | 0.539 |
| NCI-H460 | 0.033 | 0.029 | 0.0336 | 0.0289 | 0.0305 | 0.412 | 0.363 | 0.464 | 0.442 | 0.466 | 0.198 | 0.109 | 0.147 | 0.654 | 0.459 | 0.574 |
| EMC-BAC-2 | 1.25 | 0.983 | 1.23 | 1.16 | 1.15 | 0.472 | 0.459 | 0.468 | 0.481 | 0.448 | 0.813 | 0.735 | 0.758 | 0.368 | 0.325 | 0.353 |
| NCI-H520 | 0.252 | 0.212 | 0.249 | 0.218 | 0.23 | 0.359 | 0.244 | 0.315 | 0.344 | 0.351 | 0.861 | 0.603 | 0.701 | 0.235 | 0.211 | 0.26 |
| NCI-H1993 | 0.792 | 0.697 | 0.913 | 0.799 | 0.746 | 0.993 | 0.878 | 1.02 | 0.995 | 0.415 | 0.554 | 0.457 | 0.478 | 0.451 | 0.441 | 0.544 |
| NCI-H2126 | 0.867 | 0.858 | 0.895 | 1 | 0.949 | 0.945 | 0.901 | 0.902 | 0.9 | 0.932 | 0.645 | 0.593 | 0.628 | 0.753 | 0.634 | 0.535 |
| LK-2 | 0.187 |  | 0.18 | 0.167 | 0.228 | 0.735 | 0.566 | 0.841 | 0.577 | 0.734 | 0.69 | 0.548 | 0.704 | 0.36 | 0.37 | 0.432 |
| NCI-H441 | 0.248 | 0.317 | 0.279 | 0.313 | 0.315 | 0.641 | 0.461 | 0.592 | 0.581 | 0.443 | 0.387 | 0.348 | 0.423 | 0.868 | 0.501 | 0.577 |
| SW 1573 | 0.205 | 0.218 | 0.198 | 0.302 | 0.217 | 0.492 | 0.483 | 0.432 | 0.444 | 0.442 | 0.638 | 0.537 | 0.472 | 0.576 | 0.46 | 0.451 |
| NCI-H322M | 0.801 | 0.708 | 0.907 | 0.943 | 0.835 | 0.817 | 0.743 | 0.773 | 0.785 | 0.696 | 0.497 | 0.506 | 0.557 | 0.261 | 0.267 | 0.288 |
| ChaGo-K-1 | 0.594 | 0.585 | 0.469 | 0.56 | 0.32 | 0.443 | 0.402 | 0.41 | 0.362 | 0.223 | 0.998 | 0.862 | 0.884 | 0.706 | 0.648 | 0.637 |
| NCI-H1793 | 0.129 | 0.162 | 0.195 | 0.205 | 0.191 | 0.686 |  | 0.789 | 0.893 | 0.954 | 0.33 | 0.295 | 0.29 | 0.375 | 0.335 | 0.347 |
| EKVX | 1.02 | 0.689 | 0.841 | 0.959 | 0.905 | 1.03 | 0.821 | 0.846 | 0.895 | 0.704 | 0.3 | 0.272 | 0.324 | 0.525 | 0.514 | 0.335 |
| NCI-H1355 | 0.888 |  | 0.68 | 0.84 | 0.68 | 0.682 | 0.659 | 0.738 | 0.8 | 0.786 | 0.456 | 0.427 | 0.382 | 0.771 | 0.661 | 0.663 |
